Reference: ChEMBL document CHEMBL4507258 (2021)

Key:
[1] = target: Calcium/calmodulin-dependent protein kinase type 1B (Homo sapiens, UniProt Q6P2M8); assay: Inhibition of PNCK at compound concentration of 10.0 uM using the ScanMax (DiscoverX)
[2] = target: Adenosine receptor A1 (Homo sapiens) (UniProt P30542); assay: Adenosine A1 receptor (h) CEREP ligand profiling; conditions: Compound concentration 10.0 uM
[3] = target: Adrenergic receptor alpha-2 (Homo sapiens) (UniProt P08913+P18825+P18089); assay: alpha2-adrenoceptor (non-selective) CEREP ligand profiling; type: protein assay; conditions: Compound concentration 10.0 uM
[4] = target: Sodium-dependent noradrenaline transporter (Homo sapiens) (UniProt P23975); assay: Norepinephrine uptake CEREP ligand profiling; conditions: Compound concentration 10.0 uM
[5] = target: B2 bradykinin receptor (Homo sapiens) (UniProt P30411); assay: Bradykinin B2 receptor (h) CEREP ligand profiling; conditions: Compound concentration 10.0 uM
[6] = target: Histamine H1 receptor (Homo sapiens, UniProt P35367); assay: Histamine H1 receptor (central) CEREP ligand profiling; conditions: Compound concentration 10.0 uM
[7] = target: Muscarinic acetylcholine receptor M5 (Homo sapiens) (UniProt P08912); assay: Muscarinic M5 receptors (h) CEREP ligand profiling; conditions: Compound concentration 10.0 uM
[8] = target: Neuromedin-K receptor (Homo sapiens) (UniProt P29371); assay: NK3 tachykinin receptor (h) CEREP ligand profiling; conditions: Compound concentration 10.0 uM
[9] = target: Thromboxane A2 receptor (Homo sapiens) (UniProt P21731); assay: Thromboxane A2/ prostaglandin H2 receptors CEREP ligand profiling; conditions: Compound concentration 10.0 uM
[10] = target: Voltage-gated L-type calcium channel (verapamil site) (Homo sapiens, UniProt O60840+Q01668+Q13698+Q13936); assay: Ca2+ channel (L, verapamil site) CEREP ligand profiling; type: protein assay; conditions: compound concentration 10 uM
[11] = target: Sodium channel (site 1) (Homo sapiens, UniProt P35498+P35499+Q01118+Q14524+Q15858+Q99250+Q9NY46+Q9UI33+Q9UQD0+Q9Y5Y9); assay: Na+ channel (site1) CEREP ligand profiling; type: protein assay; conditions: compound concentration 10 uM
[12] = target: Activin receptor type-2B (Homo sapiens) (UniProt Q13705); conditions: Compound concentration 1000.0 nM
[13] = target: Tyrosine-protein kinase receptor UFO (Homo sapiens) (UniProt P30530); conditions: Compound concentration 1000.0 nM
[14] = target: Calcium/calmodulin-dependent protein kinase type II subunit beta (Homo sapiens) (UniProt Q13554); conditions: Compound concentration 1000.0 nM
[15] = target: Cyclin-dependent kinase 9 (Homo sapiens) (UniProt P50750); conditions: Compound concentration 1000.0 nM
Cyclin-dependent kinase 9 (Homo sapiens), sequence (P50750 whole entry): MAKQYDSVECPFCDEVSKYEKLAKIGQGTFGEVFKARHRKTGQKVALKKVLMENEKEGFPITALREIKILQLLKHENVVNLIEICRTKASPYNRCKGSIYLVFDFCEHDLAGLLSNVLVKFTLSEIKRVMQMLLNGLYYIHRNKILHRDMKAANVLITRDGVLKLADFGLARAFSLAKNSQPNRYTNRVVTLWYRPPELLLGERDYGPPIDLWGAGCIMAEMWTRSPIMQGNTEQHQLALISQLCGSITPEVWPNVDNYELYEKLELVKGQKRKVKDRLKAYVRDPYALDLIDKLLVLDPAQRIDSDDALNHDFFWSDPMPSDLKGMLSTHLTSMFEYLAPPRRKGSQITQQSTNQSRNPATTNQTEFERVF

[16] = target: Serine/threonine-protein kinase Chk1 (Homo sapiens) (UniProt O14757); conditions: Compound concentration 1000.0 nM
[17] = tested on: Epidermal growth factor receptor (Homo sapiens), P00533 [UNDEFINED MUTATION]; conditions: Compound concentration 1000.0 nM
[18] = tested on: Epidermal growth factor receptor (Homo sapiens), P00533 [L858R,T790M]; conditions: Compound concentration 1000.0 nM
[19] = target: Fibroblast growth factor receptor 3 (Homo sapiens) (UniProt P22607); conditions: Compound concentration 1000.0 nM
[20] = target: LIM domain kinase 1 (Homo sapiens) (UniProt P53667); conditions: Compound concentration 1000.0 nM
[21] = tested on: Leucine-rich repeat serine/threonine-protein kinase 2 (Homo sapiens), Q5S007 [G2019S]; conditions: Compound concentration 1000.0 nM
[22] = target: Dual specificity mitogen-activated protein kinase kinase 2 (Homo sapiens) (UniProt P36507); conditions: Compound concentration 1000.0 nM
[23] = target: Serine/threonine-protein kinase 26 (Homo sapiens) (UniProt Q9P289); conditions: Compound concentration 1000.0 nM
Serine/threonine-protein kinase 26 (Homo sapiens), sequence (Q9P289 2-416 limits assumed): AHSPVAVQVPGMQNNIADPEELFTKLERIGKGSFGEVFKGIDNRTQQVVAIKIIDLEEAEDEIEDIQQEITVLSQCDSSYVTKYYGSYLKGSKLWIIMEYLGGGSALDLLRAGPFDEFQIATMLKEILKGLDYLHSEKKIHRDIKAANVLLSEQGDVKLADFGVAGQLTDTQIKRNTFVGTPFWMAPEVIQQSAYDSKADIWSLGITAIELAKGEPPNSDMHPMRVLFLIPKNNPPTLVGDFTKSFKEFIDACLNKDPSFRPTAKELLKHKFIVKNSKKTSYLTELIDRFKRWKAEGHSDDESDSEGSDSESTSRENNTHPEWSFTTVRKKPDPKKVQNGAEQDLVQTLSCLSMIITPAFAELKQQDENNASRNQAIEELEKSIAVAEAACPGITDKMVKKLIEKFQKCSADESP

[24] = target: Serine/threonine-protein kinase OSR1 (Homo sapiens) (UniProt O95747); conditions: Compound concentration 1000.0 nM
[25] = target: Serine/threonine-protein kinase PAK 6 (Homo sapiens) (UniProt Q9NQU5); conditions: Compound concentration 1000.0 nM
[26] = target: Calcium-dependent protein kinase 1 (Plasmodium falciparum) (UniProt P62344); conditions: Compound concentration 1000.0 nM
[27] = tested on: Phosphatidylinositol 4,5-bisphosphate 3-kinase catalytic subunit alpha isoform (Homo sapiens), P42336 [H1047Y]; conditions: Compound concentration 1000.0 nM
[28] = tested on: Phosphatidylinositol 4,5-bisphosphate 3-kinase catalytic subunit alpha isoform (Homo sapiens), P42336 [M1043I]; conditions: Compound concentration 1000.0 nM
Phosphatidylinositol 4,5-bisphosphate 3-kinase catalytic subunit alpha isoform (Homo sapiens), P42336 [M1043I], sequence (P42336 whole entry M1043I, canonical isoform): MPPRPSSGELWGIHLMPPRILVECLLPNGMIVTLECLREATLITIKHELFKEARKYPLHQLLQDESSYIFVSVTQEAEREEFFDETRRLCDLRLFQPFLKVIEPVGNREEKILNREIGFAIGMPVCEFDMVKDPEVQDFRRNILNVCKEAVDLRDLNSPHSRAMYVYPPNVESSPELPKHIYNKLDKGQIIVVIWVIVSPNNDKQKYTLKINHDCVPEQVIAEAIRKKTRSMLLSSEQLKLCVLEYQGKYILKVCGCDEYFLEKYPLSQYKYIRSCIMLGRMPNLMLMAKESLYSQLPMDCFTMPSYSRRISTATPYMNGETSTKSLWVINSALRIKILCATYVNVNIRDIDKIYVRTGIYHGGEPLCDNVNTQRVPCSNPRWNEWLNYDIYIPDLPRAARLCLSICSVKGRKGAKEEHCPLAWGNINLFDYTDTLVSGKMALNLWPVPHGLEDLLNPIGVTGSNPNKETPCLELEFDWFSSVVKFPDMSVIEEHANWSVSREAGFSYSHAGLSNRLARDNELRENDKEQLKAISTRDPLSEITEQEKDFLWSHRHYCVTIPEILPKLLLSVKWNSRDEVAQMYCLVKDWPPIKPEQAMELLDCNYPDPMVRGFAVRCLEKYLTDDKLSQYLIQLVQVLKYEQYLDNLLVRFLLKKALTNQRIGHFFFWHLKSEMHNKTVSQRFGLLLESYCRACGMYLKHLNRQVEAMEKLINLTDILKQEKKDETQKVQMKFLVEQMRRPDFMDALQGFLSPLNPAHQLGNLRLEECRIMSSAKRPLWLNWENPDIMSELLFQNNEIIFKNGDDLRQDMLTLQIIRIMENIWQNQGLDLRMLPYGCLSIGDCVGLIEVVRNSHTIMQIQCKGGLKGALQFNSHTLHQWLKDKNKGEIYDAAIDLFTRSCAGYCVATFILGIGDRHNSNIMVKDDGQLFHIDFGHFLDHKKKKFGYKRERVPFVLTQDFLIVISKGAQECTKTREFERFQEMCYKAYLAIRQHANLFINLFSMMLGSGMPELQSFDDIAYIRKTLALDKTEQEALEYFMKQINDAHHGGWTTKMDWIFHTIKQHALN

[29] = target: Phosphatidylinositol 4,5-bisphosphate 3-kinase catalytic subunit beta isoform (Homo sapiens) (UniProt P42338); conditions: Compound concentration 1000.0 nM
[30] = target: cGMP-dependent protein kinase 1 (Homo sapiens) (UniProt Q13976); conditions: Compound concentration 1000.0 nM
[31] = target: Protein-tyrosine kinase 2-beta (Homo sapiens) (UniProt Q14289); conditions: Compound concentration 1000.0 nM
[32] = target: Proto-oncogene tyrosine-protein kinase receptor Ret (Homo sapiens) (UniProt P07949); conditions: Compound concentration 1000.0 nM
Proto-oncogene tyrosine-protein kinase receptor Ret (Homo sapiens), sequence (P07949 whole entry): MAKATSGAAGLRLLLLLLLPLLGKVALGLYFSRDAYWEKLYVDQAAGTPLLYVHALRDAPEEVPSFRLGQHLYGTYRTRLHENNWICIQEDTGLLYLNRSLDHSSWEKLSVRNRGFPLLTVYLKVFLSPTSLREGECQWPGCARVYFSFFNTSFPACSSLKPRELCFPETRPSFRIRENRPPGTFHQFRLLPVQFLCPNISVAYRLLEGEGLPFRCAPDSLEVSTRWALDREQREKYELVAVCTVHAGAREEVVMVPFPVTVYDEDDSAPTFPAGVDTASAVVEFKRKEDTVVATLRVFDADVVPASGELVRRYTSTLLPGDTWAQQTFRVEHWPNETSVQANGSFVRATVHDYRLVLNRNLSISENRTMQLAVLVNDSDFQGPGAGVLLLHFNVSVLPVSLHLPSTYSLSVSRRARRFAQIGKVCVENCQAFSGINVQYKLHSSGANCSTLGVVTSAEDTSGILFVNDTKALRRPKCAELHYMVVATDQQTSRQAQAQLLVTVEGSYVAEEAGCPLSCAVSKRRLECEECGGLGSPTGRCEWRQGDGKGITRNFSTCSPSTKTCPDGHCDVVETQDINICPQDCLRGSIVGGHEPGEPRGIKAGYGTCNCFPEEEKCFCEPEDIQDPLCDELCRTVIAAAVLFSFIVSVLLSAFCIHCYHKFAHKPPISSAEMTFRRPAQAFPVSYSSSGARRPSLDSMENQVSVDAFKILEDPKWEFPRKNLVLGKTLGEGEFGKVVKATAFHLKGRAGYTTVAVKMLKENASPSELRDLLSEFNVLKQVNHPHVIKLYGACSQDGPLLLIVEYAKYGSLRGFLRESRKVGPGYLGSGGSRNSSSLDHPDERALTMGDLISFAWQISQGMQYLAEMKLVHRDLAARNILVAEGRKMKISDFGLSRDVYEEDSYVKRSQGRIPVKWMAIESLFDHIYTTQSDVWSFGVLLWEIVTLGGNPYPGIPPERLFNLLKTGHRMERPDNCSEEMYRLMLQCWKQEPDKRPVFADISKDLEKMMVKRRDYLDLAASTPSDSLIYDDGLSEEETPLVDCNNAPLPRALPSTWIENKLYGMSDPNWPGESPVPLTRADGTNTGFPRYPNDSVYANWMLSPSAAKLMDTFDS

[33] = target: Ribosomal protein S6 kinase alpha-5 (Homo sapiens) (UniProt O75582); conditions: Compound concentration 1000.0 nM
[34] = target: Ribosomal protein S6 kinase alpha-1 (Homo sapiens) (UniProt Q15418); conditions: Compound concentration 1000.0 nM
Ribosomal protein S6 kinase alpha-1 (Homo sapiens), sequence (Q15418 whole entry): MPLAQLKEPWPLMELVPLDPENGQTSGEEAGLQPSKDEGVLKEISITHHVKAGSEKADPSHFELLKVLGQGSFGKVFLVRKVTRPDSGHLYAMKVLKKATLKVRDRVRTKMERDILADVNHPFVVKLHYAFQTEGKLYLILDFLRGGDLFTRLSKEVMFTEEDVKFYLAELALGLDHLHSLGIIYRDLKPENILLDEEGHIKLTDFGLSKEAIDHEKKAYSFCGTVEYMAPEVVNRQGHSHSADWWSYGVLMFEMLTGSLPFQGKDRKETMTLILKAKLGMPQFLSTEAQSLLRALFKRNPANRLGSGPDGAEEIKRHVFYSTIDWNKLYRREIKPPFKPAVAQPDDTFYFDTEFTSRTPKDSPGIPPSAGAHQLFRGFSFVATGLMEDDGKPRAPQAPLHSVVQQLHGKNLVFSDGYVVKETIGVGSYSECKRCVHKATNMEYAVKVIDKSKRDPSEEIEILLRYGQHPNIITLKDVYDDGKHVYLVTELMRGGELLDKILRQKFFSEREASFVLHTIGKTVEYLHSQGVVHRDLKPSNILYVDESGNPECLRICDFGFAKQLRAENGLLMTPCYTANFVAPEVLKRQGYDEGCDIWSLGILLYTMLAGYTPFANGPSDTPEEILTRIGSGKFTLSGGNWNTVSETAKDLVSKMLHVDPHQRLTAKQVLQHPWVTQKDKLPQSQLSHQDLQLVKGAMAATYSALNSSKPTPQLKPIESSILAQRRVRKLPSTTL

[35] = target: Ribosomal protein S6 kinase alpha-2 (Homo sapiens) (UniProt Q15349); conditions: Compound concentration 1000.0 nM
[36] = target: SRSF protein kinase 1 (Homo sapiens) (UniProt Q96SB4); conditions: Compound concentration 1000.0 nM
[37] = target: Tyrosine-protein kinase receptor TYRO3 (Homo sapiens) (UniProt Q06418); conditions: Compound concentration 1000.0 nM
Tyrosine-protein kinase receptor TYRO3 (Homo sapiens), sequence (Q06418 whole entry): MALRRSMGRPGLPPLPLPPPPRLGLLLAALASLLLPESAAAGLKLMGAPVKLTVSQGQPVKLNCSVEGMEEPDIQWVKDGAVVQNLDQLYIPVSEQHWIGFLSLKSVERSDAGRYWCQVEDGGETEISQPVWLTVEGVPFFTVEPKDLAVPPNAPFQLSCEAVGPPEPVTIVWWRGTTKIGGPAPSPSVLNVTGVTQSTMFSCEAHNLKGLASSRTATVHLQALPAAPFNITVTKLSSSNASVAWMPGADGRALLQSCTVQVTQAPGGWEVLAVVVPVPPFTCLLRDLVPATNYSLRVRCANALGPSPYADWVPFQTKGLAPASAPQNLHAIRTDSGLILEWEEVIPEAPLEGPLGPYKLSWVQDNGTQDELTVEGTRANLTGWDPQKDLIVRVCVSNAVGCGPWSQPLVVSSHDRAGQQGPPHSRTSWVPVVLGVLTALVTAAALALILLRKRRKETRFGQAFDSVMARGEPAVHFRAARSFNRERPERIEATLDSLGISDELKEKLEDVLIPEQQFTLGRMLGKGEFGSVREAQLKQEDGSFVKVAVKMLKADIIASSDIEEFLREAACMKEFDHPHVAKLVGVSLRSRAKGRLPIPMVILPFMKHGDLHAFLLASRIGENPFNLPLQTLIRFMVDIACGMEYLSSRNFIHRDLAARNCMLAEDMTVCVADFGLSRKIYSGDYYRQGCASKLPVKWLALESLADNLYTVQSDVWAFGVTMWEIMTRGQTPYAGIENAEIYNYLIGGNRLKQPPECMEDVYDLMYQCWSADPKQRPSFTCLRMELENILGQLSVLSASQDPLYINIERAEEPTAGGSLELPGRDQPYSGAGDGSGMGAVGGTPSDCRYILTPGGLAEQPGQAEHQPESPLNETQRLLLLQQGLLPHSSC

[38] = target: Serine/threonine-protein kinase WNK1 (Homo sapiens) (UniProt Q9H4A3); conditions: Compound concentration 1000.0 nM
[39] = target: 5-hydroxytryptamine receptor 7 (Homo sapiens) (UniProt P34969); conditions: Compound concentration 10.0 uM
[40] = target: Alpha-1A adrenergic receptor (Homo sapiens) (UniProt P35348); conditions: Compound concentration 10.0 uM
Alpha-1A adrenergic receptor (Homo sapiens), sequence (P35348 whole entry): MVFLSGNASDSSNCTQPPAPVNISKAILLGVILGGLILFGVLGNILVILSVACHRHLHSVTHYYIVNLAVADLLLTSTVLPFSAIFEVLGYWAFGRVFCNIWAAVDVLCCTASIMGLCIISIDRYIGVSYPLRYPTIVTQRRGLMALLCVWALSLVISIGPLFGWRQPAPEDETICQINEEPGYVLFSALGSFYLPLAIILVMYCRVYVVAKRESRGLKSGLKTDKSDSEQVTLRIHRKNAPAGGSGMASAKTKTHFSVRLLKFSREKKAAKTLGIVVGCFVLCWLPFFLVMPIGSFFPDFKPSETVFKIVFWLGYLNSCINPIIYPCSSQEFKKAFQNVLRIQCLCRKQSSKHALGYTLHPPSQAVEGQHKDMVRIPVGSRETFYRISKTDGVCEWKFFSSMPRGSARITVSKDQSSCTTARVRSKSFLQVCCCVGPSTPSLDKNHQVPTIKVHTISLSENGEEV

[41] = target: Endothelin receptor type B (Homo sapiens) (UniProt P24530); conditions: Compound concentration 10.0 uM
[42] = target: Mu-type opioid receptor (Homo sapiens, UniProt P35372); assay: GPCRScan assay: inhibition of MOR; design: radioligand conc. used [nm] 1.0 – 2.0, parental cells stable HEK
[43] = target: Kappa-type opioid receptor (Homo sapiens, UniProt P41145); assay: GPCRScan assay: inhibition of KOR; design: radioligand conc. used [nm] 0.6 – 1.2, parental cells stable HEK

Compound: CCCCN(CCCC)C(=O)CN1C[C@H](c2cc(OC)c3c(c2)OCO3)[C@@H](C(=O)O)[C@@H]1CC(C)(C)CCC [ABT-546]
- Kd [1]: > 10 µM (not active)
- inhibition [2]: 23%
- inhibition [3]: 18%
- inhibition [4]: < 10%
- inhibition [5]: < 10%
- inhibition [6]: < 10%
- inhibition [7]: < 10%
- inhibition [8]: < 10%
- inhibition [9]: 16%
- inhibition at 10 µM [10]: 29% (not active)
- inhibition at 10 µM [11]: 22% (not active)
- residual activity [12]: 100%
- residual activity [13]: 100%
- residual activity [14]: 100%
- residual activity [15]: 100%
- residual activity [16]: 100%
- residual activity [17]: 94.3%
- residual activity [18]: 60.6%
- residual activity [19]: 100%
- residual activity [20]: 100%
- residual activity [21]: 100%
- residual activity [22]: 69.7%
- residual activity [23]: 72.9%
- residual activity [24]: 89.5%
- residual activity [25]: 100%
- residual activity [26]: 82%
- residual activity [27]: 100%
- residual activity [28]: 83.7%
- residual activity [29]: 56.9%
- residual activity [30]: 100%
- residual activity [31]: 100%
- residual activity [32]: 100%
- residual activity [33]: 100%
- residual activity [34]: 100%
- residual activity [35]: 100%
- residual activity [36]: 100%
- residual activity [37]: 100%
- residual activity [38]: 72.9%
- inhibition [39]: -2.24%
- inhibition [40]: -2.13%
- inhibition [41]: 56%

Compound: CCCCN(CCCC)C(=O)CN1C[C@@H](c2cc(OC)c3c(c2)OCO3)[C@H](C(=O)O)[C@H]1CC(C)(C)CCC [A-545]
- Ki [42]: 2.78 µM
- Ki ([43]; read-out: Ki): 2.78 µM
- Ki ([43]; read-out: pKi (converted)): 2.82 µM
- residual activity [12]: 85.1%
- residual activity [13]: 87.2%
- residual activity [14]: 100%
- residual activity [15]: 100%
- residual activity [16]: 100%
- residual activity [17]: 88.4%
- residual activity [18]: 100%
- residual activity [19]: 88.5%
- residual activity [20]: 99%
- residual activity [21]: 100%
- residual activity [22]: 98%
- residual activity [23]: 100%
- residual activity [24]: 94%
- residual activity [25]: 100%
- residual activity [26]: 86.9%
- residual activity [27]: 92.6%
- residual activity [28]: 100%
- residual activity [29]: 100%
- residual activity [30]: 100%
- residual activity [31]: 93.4%
- residual activity [32]: 86.1%
- residual activity [33]: 74.4%
- residual activity [34]: 75.7%
- residual activity [35]: 90.2%
- residual activity [36]: 62.5%
- residual activity [37]: 97.1%
- residual activity [38]: 96.8%
- inhibition [40]: 23.3%
